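Dose response: 5 concentrations. Exposure: 48 h. Format: 96-well plates. Endpoint: linear interpolation; highest concentration if not reached. GI50 marks 50% less growth.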 The source made the active and inactive calls. Rule as the data show it: active = GI50 up to about 1.1 µM and inactive = higher.
What was measured:
Test in all cases: growth of human tumour cells (NCI), 48 h
ACHN = system: ACHN
CAKI-1 = system: CAKI-1
CCRF-CEM = system: CCRF-CEM
EKVX = system: EKVX
HCC 2998 = system: HCC 2998
HCT-116 = system: HCT-116
HL-60 = system: HL-60
Hs-578T = system: Hs-578T
IGROV-1 = system: IGROV-1
MDA-MB-231 = system: MDA-MB-231
OVCAR-3 = system: OVCAR-3
OVCAR-5 = system: OVCAR-5
SF-295 = system: SF-295
SK-MEL-5 = system: SK-MEL-5
SK-OV-3 = system: SK-OV-3
SW-620 = system: SW-620
TK-10 = system: TK-10
UACC-257 = system: UACC-257
KM12 = system: KM12
SF-539 = system: SF-539

Row | Compound | GI50 (ACHN) | GI50 (CAKI-1) | GI50 (CCRF-CEM) | GI50 (EKVX) | GI50 (HCC 2998) | GI50 (HCT-116) | GI50 (HL-60) | GI50 (Hs-578T) | GI50 (IGROV-1) | GI50 (MDA-MB-231) | GI50 (OVCAR-3) | GI50 (OVCAR-5) | GI50 (SF-295) | GI50 (SK-MEL-5) | GI50 (SK-OV-3) | GI50 (SW-620) | GI50 (TK-10) | GI50 (UACC-257) | GI50 (KM12) | GI50 (SF-539)
1 | CCCCCCCCCCOC1C(C(C)OCCCN(C)C)OC2OC3(CCCCC3)OC21 (stereo unspecified) | 17.1 µM (inactive) | 13.7 µM (inactive) | 10.7 µM (inactive) | 18.2 µM (inactive) | 13.3 µM (inactive) | 13.4 µM (inactive) | 6.37 µM (inactive) | 18.1 µM (inactive) | 14.3 µM (inactive) | 15.3 µM (inactive) | 14.7 µM (inactive) | 11.7 µM (inactive) | 17.5 µM (inactive) | 15.8 µM (inactive) | 18.5 µM (inactive) | 12.7 µM (inactive) | 23.1 µM (inactive) | 20.8 µM (inactive) |  | 
2 | CCN(CCCOc1ccccc1)CCN(CC)CCCOc1ccccc1 | 16.3 µM (inactive) | 16.4 µM (inactive) | 0.71 µM (active) | 12.7 µM (inactive) | 8.69 µM (inactive) | 11.7 µM (inactive) | 7.46 µM (inactive) | 13.5 µM (inactive) | 10.9 µM (inactive) | 16.1 µM (inactive) | 14.8 µM (inactive) | 17 µM (inactive) | 15.6 µM (inactive) | 2.22 µM (inactive) |  | 20.8 µM (inactive) | 12.7 µM (inactive) | 16.2 µM (inactive) | 12.2 µM (inactive) | 10.7 µM (inactive)
3 | C[N+]1(C)C2Cc3ccccc3C1Cc1ccccc12 | > 100 µM (inactive) |  | > 100 µM (inactive) | > 100 µM (inactive) | > 100 µM (inactive) | > 100 µM (inactive) | > 100 µM (inactive) | > 100 µM (inactive) | > 100 µM (inactive) | > 100 µM (inactive) | 90.8 µM (inactive) | > 100 µM (inactive) | > 100 µM (inactive) | > 100 µM (inactive) | > 100 µM (inactive) | > 100 µM (inactive) | > 100 µM (inactive) | > 100 µM (inactive) | > 100 µM (inactive) | > 100 µM (inactive)
4 | CC(=O)N1C(=O)c2cc3ccccc3cc21 | > 100 µM (inactive) |  | 78.2 µM (inactive) | > 100 µM (inactive) | > 100 µM (inactive) | 61.4 µM (inactive) | > 100 µM (inactive) | > 100 µM (inactive) | 38.8 µM (inactive) | > 100 µM (inactive) |  | > 100 µM (inactive) |  | > 100 µM (inactive) | > 100 µM (inactive) | > 100 µM (inactive) | > 100 µM (inactive) |  |  | > 100 µM (inactive)
5 | CCCC(=O)N1CCN(c2ccc3c(c2)OC(C)O3)CC1 (stereo unspecified) | > 100 µM (inactive) | > 100 µM (inactive) | > 100 µM (inactive) | > 100 µM (inactive) | > 100 µM (inactive) | > 100 µM (inactive) |  | > 100 µM (inactive) | > 100 µM (inactive) | > 100 µM (inactive) | > 100 µM (inactive) | > 100 µM (inactive) | > 100 µM (inactive) | > 100 µM (inactive) | > 100 µM (inactive) | > 100 µM (inactive) | > 100 µM (inactive) | > 100 µM (inactive) | > 100 µM (inactive) | > 100 µM (inactive)
6 | NC(=O)c1csc(C2OC(CO)C(O)C2O)n1 (stereo unspecified) | 44.6 µM (inactive) |  | 7.8 µM (inactive) | 543 µM (inactive) | 467 µM (inactive) | 22.6 µM (inactive) | 8.95 µM (inactive) | 44.7 µM (inactive) | 42.4 µM (inactive) | 84.9 µM (inactive) | 19.6 µM (inactive) | 436 µM (inactive) |  | 96.8 µM (inactive) | 61.8 µM (inactive) | 13.8 µM (inactive) | 237 µM (inactive) | 4400 µM (inactive) | 48.4 µM (inactive) | 20.3 µM (inactive)
7 | O=[N+]([O-])c1cccc(-c2nc(-c3ccccc3)c(-c3ccccc3)[nH]2)c1 |  | > 100 µM (inactive) | > 100 µM (inactive) | > 100 µM (inactive) | > 100 µM (inactive) | > 100 µM (inactive) | > 100 µM (inactive) | > 100 µM (inactive) | > 100 µM (inactive) | > 100 µM (inactive) | > 100 µM (inactive) | > 100 µM (inactive) | > 100 µM (inactive) | > 100 µM (inactive) | > 100 µM (inactive) | > 100 µM (inactive) | > 100 µM (inactive) | > 100 µM (inactive) |  | > 100 µM (inactive)
8 | CC(=O)Nc1ccc2c3c(cc(O)c2c1)N(C(=O)CCCCCC(=O)N1CC(CCl)c2c1cc(O)c1cc(NC(C)=O)ccc21)CC3CCl (stereo unspecified) | < 0.01 µM (active) | 0.0123 µM (active) |  | 0.193 µM (active) | 0.0211 µM (active) | 0.0101 µM (active) | 0.115 µM (active) | 0.0362 µM (active) | 0.0292 µM (active) | 0.0301 µM (active) | 0.0172 µM (active) | 0.101 µM (active) | 0.0156 µM (active) | 0.0109 µM (active) | 0.0405 µM (active) | 0.13 µM (active) | 0.169 µM (active) | 0.0168 µM (active) | 0.0416 µM (active) | 0.012 µM (active)
9 | CCOC(=O)Oc1ccc2c(c1)c(=O)c1c(NCCN(CC)CC)ccc3nnn2c31 | 0.406 µM (active) |  | 0.172 µM (active) | 6.41 µM (inactive) | 2.94 µM (inactive) | 0.405 µM (active) |  | 5.11 µM (inactive) | 0.519 µM (active) | 2.48 µM (inactive) | 4.46 µM (inactive) | 10.6 µM (inactive) | 3.78 µM (inactive) | 1.7 µM (inactive) | 8 µM (inactive) | 0.438 µM (active) | 3.19 µM (inactive) | 7.35 µM (inactive) | 2.32 µM (inactive) | 0.748 µM (active)
10 | Cc1ccc(S(=O)(=O)N(CCNC(=O)c2cccc(O)c2O)c2cc3c4c(c2)Oc2cccc5c2C4(C)c2c(cccc2O3)O5)cc1 | > 100 µM (inactive) | > 100 µM (inactive) |  | 37.4 µM (inactive) | > 100 µM (inactive) | 28.8 µM (inactive) |  | > 100 µM (inactive) | 5.93 µM (inactive) | 21.7 µM (inactive) | 6.52 µM (inactive) | 64.7 µM (inactive) | > 100 µM (inactive) | 22.1 µM (inactive) | 57.1 µM (inactive) | 14.6 µM (inactive) | > 100 µM (inactive) | > 100 µM (inactive) | > 100 µM (inactive) | 73.3 µM (inactive)
11 | O=C1OC[C@H]2[C@@H]1[C@H]1O[C@@H]2C2=C(CCC2)C1=O | > 100 µM (inactive) |  | > 100 µM (inactive) | > 100 µM (inactive) | > 100 µM (inactive) | > 100 µM (inactive) | > 100 µM (inactive) | > 100 µM (inactive) | > 100 µM (inactive) | > 100 µM (inactive) | > 100 µM (inactive) | > 100 µM (inactive) | > 100 µM (inactive) | > 100 µM (inactive) | > 100 µM (inactive) | > 100 µM (inactive) | > 100 µM (inactive) | > 100 µM (inactive) | > 100 µM (inactive) | > 100 µM (inactive)
12 | CC1OC(OC2C(O[C@H]3CC[C@@]4(C)C(=CC[C@H]5[C@@H]6C[C@@H]7O[C@]8(CC[C@@H](CO)CO8)[C@@H](C)[C@@H]7[C@@]6(C)CC[C@@H]54)C3)OC(CO)C(O)C2OC2OC(CO)C(O)C(O)C2O)C(O)C(O)C1O (stereo partly specified) | 1.73 µM (inactive) | 1.95 µM (inactive) |  | 2.07 µM (inactive) | 1.62 µM (inactive) | 1.65 µM (inactive) | 1.44 µM (inactive) | 2.91 µM (inactive) | 1.95 µM (inactive) | 1.79 µM (inactive) |  | 2.22 µM (inactive) |  | 1.64 µM (inactive) | 2.62 µM (inactive) | 1.86 µM (inactive) | 1.71 µM (inactive) | 1.77 µM (inactive) | 1.91 µM (inactive) | 1.6 µM (inactive)
13 | COc1ccc(Nc2nc3ccc(C(F)(F)F)cc3nc2C(=O)O)cc1OC | 35.2 µM (inactive) | 39.5 µM (inactive) |  | 36.2 µM (inactive) | 18.7 µM (inactive) | 25.9 µM (inactive) | 29.9 µM (inactive) | 38.6 µM (inactive) | 34.3 µM (inactive) | 37.9 µM (inactive) | 17.9 µM (inactive) | 47 µM (inactive) | 24 µM (inactive) | 20.1 µM (inactive) |  | 29.2 µM (inactive) |  | 30.6 µM (inactive) | 16.9 µM (inactive) | 
14 | O=C1NC(=O)C2=C1CCC2O (stereo unspecified) | > 100 µM (inactive) | > 100 µM (inactive) | > 100 µM (inactive) | > 100 µM (inactive) | > 100 µM (inactive) | > 100 µM (inactive) | > 100 µM (inactive) | > 100 µM (inactive) | > 100 µM (inactive) | > 100 µM (inactive) | > 100 µM (inactive) | > 100 µM (inactive) | > 100 µM (inactive) |  | > 100 µM (inactive) | > 100 µM (inactive) | > 100 µM (inactive) | > 100 µM (inactive) | > 100 µM (inactive) | > 100 µM (inactive)
15 | Nc1nc(SCC(=O)O)nc(O)c1N | > 100 µM (inactive) | > 100 µM (inactive) | 1.32 µM (inactive) | > 100 µM (inactive) |  | 35.6 µM (inactive) | 56.1 µM (inactive) | > 100 µM (inactive) | > 100 µM (inactive) | > 100 µM (inactive) | > 100 µM (inactive) | > 100 µM (inactive) | > 100 µM (inactive) | > 100 µM (inactive) | > 100 µM (inactive) | 31 µM (inactive) | > 100 µM (inactive) | 70.5 µM (inactive) | > 100 µM (inactive) | > 100 µM (inactive)
